Source: US20100041089A1, “IMPROVED METHOD FOR DETECTING CHEMICAL […]” (priority 2006, published 2010)

Test system: yeast genes (expressed mRNA)
Experiment: DNA chip measurement of expressed mRNA of yeast genes after culture with a toxic chemical substance
Format: cell-based, Saccharomyces cerevisiae S288C
Settings: for level of expressed mRNA in the presence of chemical substance / level in the absence of chemical substance: cultured two hours with the chemical substance; for The level of expressed mRNA in the presence of chemical substance/The level of expressed mRNA in the absence of chemical substance: cultured two hours with substance
Procedure: Yeast (Saccharomyces cerevisiae S288C (a SUC2mal mel gap2 CUP1)) were cultured at 25° C. on YPD medium (yeast extract 1%, polypeptone 2%, glucose 2%). One of toxic chemical substances was added to the cell at logarithmic growth phase, and the cell was further cultured for two hours. Cell was cultured without any chemical substance in the same condition, and was used as a control. Concentrations of the chemical substances were defined to inhibit the growth of the yeast but not lead to death.
After the completion of cultivation, the culture was centrifuged to collect the cells. To the cells, sodium acetate buffer (50 mM sodium acetate, 10 mM EDTA, 1% SDS) was added, and the mixture was shaken at 65° C. for five minutes, followed by returning to room temperature, and obtaining the supernatant, which procedure was repeated two times. To the supernatant, ½ amount of a solution of phenol/chloroform (1:1) was added, and the mixture was centrifuged to give a supernatant, an equal amount of chloroform was added, and the mixture was centrifuged to give a supernatant. To the supernatant, an equal amount of isopropanol containing 0.3 M sodium acetate was added, and the mixture was allowed to stand at room temperature for 30 minutes, after which the mixture was centrifuged to give sediment of the whole RNAs. Seventy % ethanol was added to the sediment, and the mixture was again centrifuged to give sediment, which was then dried and dissolved in water. mRNA was isolated from the whole RNAs as followings. In view of the fact that a poly A chain is attached to the 3′ terminus of mRNA, a polynucleotide having a poly T structure which was immobilized on the surface of latex beads was used to trap the mRNA, and then the mRNA was washed and eluted with spine column (Oligotex-dT30<Super>mRNA Purification Kit, Takara). Reverse transcription of the mRNA was conducted with a reverse transcriptase (Super Script II Reverse Transcriptase; catalogue No. 18064-014, GibcoBRL) using fluorescence-labeled nucleotides to give cDNAs that were introduced with Cy3-dUTP or Cy5-dUTP during the reverse transcription.
The labeled cDNAs were dissolved in TE buffer (10 mM Tris-HCl/1 mM EDTA, pH 8.0), and the solution was dropped on the DNA chip containing the whole genes of yeast (DNA Chip Research Inc. Japan) so that the cDNAs were hybridized on the DNA chip at 65° C. for over 12 hours. The fluoresces intensity of the DNA chip was read with a scanner, and the ratio relative to the fluorescence intensity resulting from the absence of chemical substance was estimated as the following, which is shown in Tables 1 to 9.
In the Tables, “Intensity” indicated in the rightmost column is a value of the level of expressed mRNA of each gene in control cells as divided by the average level of the expressions of the whole genes. A gene of which mRNA level is lower in control, and is higher in cases of addition of chemical substance, is especially useful in the detection of toxic substances.
Here, when a ratio of an amount of mRNA expressed in the presence of the chemical substance to an amount of mRNA expressed in the absence of the chemical substance is two or more, then it is considered significant.

Substance: Manganese ethylenebis(dithiocarbamate) [(8)]
- The level of expressed mRNA in the presence of chemical substance/The level of expressed mRNA in the absence of chemical substance, yeast gene YBR036C (gene YBR036C, Metabolism protein genes, DNA chip fluorescence ratio): 0.7
- The level of expressed mRNA in the presence of chemical substance/The level of expressed mRNA in the absence of chemical substance, yeast gene YBR298C (gene YBR298C, Metabolism protein genes, DNA chip fluorescence ratio): 0.5
- The level of expressed mRNA in the presence of chemical substance/The level of expressed mRNA in the absence of chemical substance, yeast gene YDL067C (gene YDL067C (mitochondria-located protein gene), yeast cultured two hours with chemical substance, DNA chip fluorescence ratio to control): 1.1
- The level of expressed mRNA in the presence of chemical substance/The level of expressed mRNA in the absence of chemical substance, yeast gene YDL078C (gene YDL078C, Metabolism protein genes, DNA chip fluorescence ratio): 1.0
- The level of expressed mRNA in the presence of chemical substance/The level of expressed mRNA in the absence of chemical substance, yeast gene YDL215C (gene YDL215C, Metabolism protein genes, DNA chip fluorescence ratio): 1.1
- The level of expressed mRNA in the presence of chemical substance/The level of expressed mRNA in the absence of chemical substance, yeast gene YDR079W (gene YDR079W (mitochondria-located protein gene), yeast cultured two hours with chemical substance, DNA chip fluorescence ratio to control): 2.6
- The level of expressed mRNA in the presence of chemical substance/The level of expressed mRNA in the absence of chemical substance, yeast gene YDR297W (gene YDR297W, Metabolism protein genes, DNA chip fluorescence ratio): 1.5
- The level of expressed mRNA in the presence of chemical substance/The level of expressed mRNA in the absence of chemical substance, yeast gene YDR387C (gene YDR387C, Metabolism protein genes, DNA chip fluorescence ratio): 0.7
- The level of expressed mRNA in the presence of chemical substance/The level of expressed mRNA in the absence of chemical substance, yeast gene YGL035C (gene YGL035C, Metabolism protein genes, DNA chip fluorescence ratio): 1.3
- The level of expressed mRNA in the presence of chemical substance/The level of expressed mRNA in the absence of chemical substance, yeast gene YGR062C (gene YGR062C (mitochondria-located protein gene), yeast cultured two hours with chemical substance, DNA chip fluorescence ratio to control): 0.8
- The level of expressed mRNA in the presence of chemical substance/The level of expressed mRNA in the absence of chemical substance, yeast gene YGR287C (gene YGR287C, Metabolism protein genes, DNA chip fluorescence ratio): 1.3
- The level of expressed mRNA in the presence of chemical substance/The level of expressed mRNA in the absence of chemical substance, yeast gene YJL070C (gene YJL070C, Metabolism protein genes, DNA chip fluorescence ratio): 1.1
- The level of expressed mRNA in the presence of chemical substance/The level of expressed mRNA in the absence of chemical substance, yeast gene YJL096W (gene YJL096W (mitochondria-located protein gene), yeast cultured two hours with chemical substance, DNA chip fluorescence ratio to control): 1.3
- The level of expressed mRNA in the presence of chemical substance/The level of expressed mRNA in the absence of chemical substance, yeast gene YJL180C (gene YJL180C (mitochondria-located protein gene), yeast cultured two hours with chemical substance, DNA chip fluorescence ratio to control): 1.0
- The level of expressed mRNA in the presence of chemical substance/The level of expressed mRNA in the absence of chemical substance, yeast gene YKR009C (gene YKR009C, Metabolism protein genes, DNA chip fluorescence ratio): 0.9
- The level of expressed mRNA in the presence of chemical substance/The level of expressed mRNA in the absence of chemical substance, yeast gene YLR295C (gene YLR295C (mitochondria-located protein gene), yeast cultured two hours with chemical substance, DNA chip fluorescence ratio to control): 1.2
- The level of expressed mRNA in the presence of chemical substance/The level of expressed mRNA in the absence of chemical substance, yeast gene YLR351C (gene YLR351C, Metabolism protein genes, DNA chip fluorescence ratio): 1.2
- The level of expressed mRNA in the presence of chemical substance/The level of expressed mRNA in the absence of chemical substance, yeast gene YLR375W (gene YLR375W, Metabolism protein genes, DNA chip fluorescence ratio): 1.0
- The level of expressed mRNA in the presence of chemical substance/The level of expressed mRNA in the absence of chemical substance, yeast gene YMR023C (gene YMR023C (mitochondria-located protein gene), yeast cultured two hours with chemical substance, DNA chip fluorescence ratio to control): 1.4
- The level of expressed mRNA in the presence of chemical substance/The level of expressed mRNA in the absence of chemical substance, yeast gene YMR267W (gene YMR267W (mitochondria-located protein gene), yeast cultured two hours with chemical substance, DNA chip fluorescence ratio to control): 1.5
- The level of expressed mRNA in the presence of chemical substance/The level of expressed mRNA in the absence of chemical substance, yeast gene YMR267W (gene YMR267W, Metabolism protein genes, DNA chip fluorescence ratio): 1.5
- The level of expressed mRNA in the presence of chemical substance/The level of expressed mRNA in the absence of chemical substance, yeast gene YMR278W (gene YMR278W, Metabolism protein genes, DNA chip fluorescence ratio): 1.1
- The level of expressed mRNA in the presence of chemical substance/The level of expressed mRNA in the absence of chemical substance, yeast gene YMR293C (gene YMR293C, Metabolism protein genes, DNA chip fluorescence ratio): 1.0
- The level of expressed mRNA in the presence of chemical substance/The level of expressed mRNA in the absence of chemical substance, yeast gene YNL073W (gene YNL073W (mitochondria-located protein gene), yeast cultured two hours with chemical substance, DNA chip fluorescence ratio to control): 1.0
- The level of expressed mRNA in the presence of chemical substance/The level of expressed mRNA in the absence of chemical substance, yeast gene YNR072W (gene YNR072W, Metabolism protein genes, DNA chip fluorescence ratio): 0.9
- The level of expressed mRNA in the presence of chemical substance/The level of expressed mRNA in the absence of chemical substance, yeast gene YOL096C (gene YOL096C, Metabolism protein genes, DNA chip fluorescence ratio): 1.0
- The level of expressed mRNA in the presence of chemical substance/The level of expressed mRNA in the absence of chemical substance, yeast gene YOR180C (gene YOR180C, Metabolism protein genes, DNA chip fluorescence ratio): 0.9
- The level of expressed mRNA in the presence of chemical substance/The level of expressed mRNA in the absence of chemical substance, yeast gene YOR316C (gene YOR316C (mitochondria-located protein gene), yeast cultured two hours with chemical substance, DNA chip fluorescence ratio to control): 0.8
- The level of expressed mRNA in the presence of chemical substance/The level of expressed mRNA in the absence of chemical substance, yeast gene YOR363C (gene YOR363C, Metabolism protein genes, DNA chip fluorescence ratio): 1.1
- The level of expressed mRNA in the presence of chemical substance/The level of expressed mRNA in the absence of chemical substance, yeast gene YPL040C (gene YPL040C (mitochondria-located protein gene), yeast cultured two hours with chemical substance, DNA chip fluorescence ratio to control): 1.1
- The level of expressed mRNA in the presence of chemical substance/The level of expressed mRNA in the absence of chemical substance, yeast gene YPL134C (gene YPL134C (mitochondria-located protein gene), yeast cultured two hours with chemical substance, DNA chip fluorescence ratio to control): 1.3
- The level of expressed mRNA in the presence of chemical substance/The level of expressed mRNA in the absence of chemical substance, yeast gene YPR184W (gene YPR184W, Metabolism protein genes, DNA chip fluorescence ratio): 0.7
- level of expressed mRNA in the presence of chemical substance / level in the absence of chemical substance (yeast gene YAL018C): 1.6
- The level of expressed mRNA in the presence of chemical substance/The level of expressed mRNA in the absence of chemical substance (yeast gene YAL053W): 0.8
- level of expressed mRNA in the presence of chemical substance / level in the absence of chemical substance (yeast gene YAR047C): 0.8
- level of expressed mRNA in the presence of chemical substance / level in the absence of chemical substance (yeast gene YAR064W): 1.1
- level of expressed mRNA in the presence of chemical substance / level in the absence of chemical substance (yeast gene YBL044W): 0.7
- The level of expressed mRNA in the presence of chemical substance/The level of expressed mRNA in the absence of chemical substance (yeast gene YBL048W): 1.2
- The level of expressed mRNA in the presence of chemical substance/The level of expressed mRNA in the absence of chemical substance (yeast gene YBL107C): 1.9
- level of expressed mRNA in the presence of chemical substance / level in the absence of chemical substance (yeast gene YBR012C): 1.1
- level of expressed mRNA in the presence of chemical substance / level in the absence of chemical substance (yeast gene YBR066C): 1.2
- level of expressed mRNA in the presence of chemical substance / level in the absence of chemical substance (yeast gene YBR124W): 1.2
- level of expressed mRNA in the presence of chemical substance / level in the absence of chemical substance (yeast gene YBR162C): 0.8
- level of expressed mRNA in the presence of chemical substance / level in the absence of chemical substance (yeast gene YBR287W): 1.0
- level of expressed mRNA in the presence of chemical substance / level in the absence of chemical substance (yeast gene YCL042W): 0.6
- level of expressed mRNA in the presence of chemical substance / level in the absence of chemical substance (yeast gene YCL056C): 1.0
- level of expressed mRNA in the presence of chemical substance / level in the absence of chemical substance (yeast gene YCR007C): 1.0
- level of expressed mRNA in the presence of chemical substance / level in the absence of chemical substance (yeast gene YDL046W): 0.7
- The level of expressed mRNA in the presence of chemical substance/The level of expressed mRNA in the absence of chemical substance (yeast gene YDL072C): 0.8
- The level of expressed mRNA in the presence of chemical substance/The level of expressed mRNA in the absence of chemical substance (yeast gene YDL204W): 1.1
- The level of expressed mRNA in the presence of chemical substance/The level of expressed mRNA in the absence of chemical substance (yeast gene YDL222C): 0.7
- level of expressed mRNA in the presence of chemical substance / level in the absence of chemical substance (yeast gene YDR090C): 0.8
